SMILES strings stand for the structures.

Assay [1] concerns the target T1, rhPRDX2 (PRDX2) (Homo sapiens, UniProt P32119).
T1 construct: pET28a His-tagged, expressed in E. coli Rosetta, His-purified; decamer in docking model; endogenous protein of U2932 lysate in the Biotin-ART pull-down
T1 sequence (P32119 2-198): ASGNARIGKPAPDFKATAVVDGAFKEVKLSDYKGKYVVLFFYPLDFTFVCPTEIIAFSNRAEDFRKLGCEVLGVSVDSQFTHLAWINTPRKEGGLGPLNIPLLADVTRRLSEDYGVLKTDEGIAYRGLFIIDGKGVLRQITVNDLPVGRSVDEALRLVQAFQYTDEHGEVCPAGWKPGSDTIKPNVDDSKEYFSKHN
Kind of assay: intrinsic fluorescence titration, Hill plot. The assay is classed as binding.

Assay [2] has as its target T2, rhPRDX1 (PRDX1) (Homo sapiens, UniProt Q06830).
T2 construct: pET28a His-tagged, expressed in E. coli BL21, His-purified; homodimer in docking model; endogenous protein of U2932 lysate in the Biotin-ART pull-down
T2 sequence (Q06830 2-199): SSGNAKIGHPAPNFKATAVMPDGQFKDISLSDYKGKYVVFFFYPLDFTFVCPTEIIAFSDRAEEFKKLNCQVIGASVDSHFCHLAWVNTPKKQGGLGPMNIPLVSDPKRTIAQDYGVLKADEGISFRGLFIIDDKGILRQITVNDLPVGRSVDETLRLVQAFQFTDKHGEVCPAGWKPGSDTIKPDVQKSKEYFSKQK
Kind of assay: H2O2 reduction assay, residual H2O2 kit. The assay is classed as biochemical. As to conditions: 20 μM protein, 30 min preincubation, 100 μM H2O2, RT.

Assay [3] concerns the target T1, rhPRDX2 (PRDX2). Put plainly: CD thermal denaturation. The assay is classed as binding. Conditions: 10 μM protein, 1 mM ART, 20 mM Tris-HCl.
The target of assay [4] is T2, rhPRDX1 (PRDX1). Kind of assay: intrinsic fluorescence titration, Hill plot. The assay is classed as binding.

Broadly, the Kd is a measure of binding affinity in units of concentration. Higher therefore signals a looser complex. Turning to `C[C@H]1[C@H](OC(=O)CCC(=O)O)O[C@@H]2O[C@@]3(C)CC[C@H]4[C@H](C)CC[C@@H]1[C@@]24OO3` [Artesunate], the results for the Kd on rhPRDX2 (PRDX2) [1] and at rhPRDX1 (PRDX1) [4] were 5.24 µM and 6.1 µM, respectively. In addition, the “H2O2 reduction assay, residual H2O2 kit” value on rhPRDX1 (PRDX1) [2] was “ART suppressed the peroxidase activity of rhPRDX1 and rhPRDX2 in a dose-dependent manner”. The “Tm (without to with ART)” value at rhPRDX2 (PRDX2) [3] was 57 to 61 °C.

For the origin of these results see publication PMC12254379, “Artesunate induces ferroptosis in diffuse large B-cell lymphoma cells by targeting PRDX1 and PRDX2” (Cell Death & Disease, 2025).
